Values of other authors as cited in US5780243A, “Methods for the quantitative analysis of organic compounds” (Thaco Research, Ltd., priority 1996, dated 1998).

solubility in organic solvents: virtual insolubility
SMILES: CNC1C(O)C(NC)C2OC3(O)C(=O)CC(C)OC3OC2C1O (stereo not shown) [spectinomycin, decahydro-4a,7,9-trihydroxy-2-methyl-6,8-bis(methylamino)-4H-pyrano[2,3-b][1,4]benzodioxin-4-one]
